# Where a SMILES comes first, the peptide text is derived from it. [ ]: non-standard residue; d: D form.
# Columns and labels:
# MPAO1-ΔmutS [1] = test: In vitro adaptive evolution (serial passaging) with MIC determination; format: cell-based, Pseudomonas aeruginosa; details: for cross-resistance to antibiotics induced by treatment / cross-resistance to peptides induced by treatment: MPAO1-ΔmutS evolved in the named drug; for resistance acquisition on repeated exposure to the drug: MPAO1-ΔmutS, monotherapy
# Method: (§1) MICs were determined via microbroth dilution assay in 96-well culture plates with 2-fold serial dilutions of tested antibiotic in Mueller-Hinton (cation-adjusted) broth, inoculated with 50 μL of 2.75×10^5 CFU/mL of each bacterial strain and incubated at 37° C., 200 rpm for 24 hours. MIC experiments were performed using biological triplicates.
# (§2) Serial passaging of bacterial strains was performed in 96-well culture plates with 2-fold serial dilutions of antibiotic in MH broth, inoculated with 50 μL 2.75×10^5 CFU/mL of each strain and incubated at 37° C., 200 rpm for 24 hours. […] The bacteria were then serially passaged in the same antibiotic and MIC determined for all antibiotics (aztreonam, ciprofloxacin, D-CONGA, D-CONGA-Q7, polymyxin B). See Antimicrobial susceptibility testing section. The bacteria were serially passaged a total of 10 times.
# (§3) All resistance acquisition data was analyzed in units of fold-change to normalize for differences in starting MIC across strains. Fold-change in MIC data for all strains and treatment groups was natural log-transformed and simple linear regression was performed considering each replicate fold-change value as an individual point. Slope, standard error of slope, and total number of values of each treatment group of interest were analyzed via unpaired t-test (ΔmutS vs WT) or ordinary one-way ANOVA (cross-resistance acquisition of ΔmutS+AB vs −AB vs WT), and α-values were corrected for multiple comparisons using the Bonferroni method. Differences in estimated mutation rate across treatment groups were determined via ordinary one-way ANOVA (Brown-Forsythe test). For all statistical tests, p<0.05 was considered significant. All figures were created and statistical tests were done using GraphPad Prism 9.3.1.
# MPAO1 [2] = test: as above; format: cell-based, Pseudomonas aeruginosa
# Method: as §1, §2, §3
# [3] = system: drug-resistant clinical isolates of Staphylococcus aureus, Klebsiella pneumoniae, Acinetobacter baumannii, and P. aeruginosa; details: in vitro and in vivo, reference 23; cited from earlier work
# [4] = system: wild type P. aeruginosa (PAO1); details: reference 23; cited from earlier work
# MPAO1 [5] = test: microbe, parasite or virus in culture; format: cell-based, Pseudomonas aeruginosa; details: strain MPAO1
# Method: (§4) MIC experiments were performed using biological triplicates.
# PAO1 = test: microbe, parasite or virus in culture; format: cell-based, Pseudomonas aeruginosa; details: strain PAO1
# Method: as §4
# MPAO1-ΔmutL [6] = test: MIC, microbroth dilution assay; format: cell-based, Pseudomonas aeruginosa; details: strain ΔmutL
# Method: as §4
# MPAO1-ΔmutS [7] = test: MIC, microbroth dilution assay; format: cell-based, Pseudomonas aeruginosa; details: strain ΔmutS
# Method: as §4
# MPAO1-ΔmutL [8] = test: In vitro adaptive evolution (serial passaging) with MIC determination; format: cell-based, Pseudomonas aeruginosa; details: MPAO1-ΔmutL, monotherapy
# Method: as §1, §2, §3
# [9] = system: predicted MMR-deficient clinical isolates; test: In vitro adaptive evolution of clinical isolates from pwCF; format: cell-based, Pseudomonas aeruginosa; details: isolates CFP6_Pa2, CFP8_Pa1 and CFP9_Pa1
# Method: as §4
# [10] = MPAO1-ΔmutS evolved in AZ + COL
# [11] = MPAO1-ΔmutS evolved in AZ + D-CONGA
# [12] = MPAO1-ΔmutS evolved in AZ + D-CONGA-Q7
# [13] = MPAO1-ΔmutS evolved in D-CONGA-Q7
# [14] = MPAO1-ΔmutS passaged with No Antibiotic (Table 4)
# [15] = MPAO1-ΔmutS passaged with No Antibiotic (Table 8)
# [16] = MPAO1 evolved in AZ + D-CONGA-Q7
# [17] = MPAO1 passaged with No Antibiotic (Table 4)
# [18] = MPAO1 passaged with No Antibiotic (Table 8)
Molecule,fold-change relative to starting MIC before treatment (MPAO1-ΔmutS [1]; MPAO1-ΔmutS evolved in AZ),fold-change relative to starting MIC before treatment (MPAO1-ΔmutS [1]; [10]),fold-change relative to starting MIC before treatment (MPAO1-ΔmutS [1]; [11]),fold-change relative to starting MIC before treatment (MPAO1-ΔmutS [1]; [12]),fold-change relative to starting MIC before treatment (MPAO1-ΔmutS [1]; MPAO1-ΔmutS evolved in COL),fold-change relative to starting MIC before treatment (MPAO1-ΔmutS [1]; MPAO1-ΔmutS evolved in Chl),fold-change relative to starting MIC before treatment (MPAO1-ΔmutS [1]; MPAO1-ΔmutS evolved in D-CONGA),fold-change relative to starting MIC before treatment (MPAO1-ΔmutS [1]; [13]),cross-resistance to antibiotics induced by treatment (MPAO1-ΔmutS [1]),cross-resistance to peptides induced by treatment (MPAO1-ΔmutS [1]),fold-change relative to starting MIC before treatment (MPAO1-ΔmutS [1]; [14]),fold-change relative to starting MIC before treatment (MPAO1-ΔmutS [1]; [15]),resistance acquisition on repeated exposure to the drug (MPAO1-ΔmutS [1]),fold-change relative to starting MIC before treatment (MPAO1 [2]; MPAO1 evolved in AZ),fold-change relative to starting MIC before treatment (MPAO1 [2]; MPAO1 evolved in AZ + COL),fold-change relative to starting MIC before treatment (MPAO1 [2]; MPAO1 evolved in AZ + D-CONGA),fold-change relative to starting MIC before treatment (MPAO1 [2]; [16]),fold-change relative to starting MIC before treatment (MPAO1 [2]; MPAO1 evolved in COL),fold-change relative to starting MIC before treatment (MPAO1 [2]; [17]),fold-change relative to starting MIC before treatment (MPAO1 [2]; [18]),other results
CC(C)C[C@@H](NC(=O)[C@@H](CCC(N)=O)NC(=O)[C@@H](CCCNC(=N)N)NC(=O)[C@@H](CCCNC(=N)N)NC(=O)[C@@H](C)NC(=O)[C@@H](Cc1c[nH]c2ccccc12)NC(=O)[C@@H](CCCNC(=N)N)NC(=O)[C@H](N)CCCNC(=N)N)C(=O)N[C@H](C)C(=O)N[C@H](Cc1ccccc1)C(=O)N[C@H](C)C(=O)N[C@H](Cc1ccccc1)C(=O)N[C@H](CCCNC(=N)N)C(=O)N[C@H](CCCNC(=N)N)C(N)=O [D-CONGA-Q7] (H-[dR][dR][dW][dA][dR][dR][dQ][dL][dA][dF][dA][dF][dR][dR]-NH2; N-terminus and C-terminus assumed),0.42,2,0.67,0.67,1.75,1,2.67,3.33,failed to induce marked cross-resistance to antibiotics,induced cross-resistance to other peptides,1,1.38,developed resistance,1.2,1,1.2,1.2,1,1,1,fold-change relative to starting MIC before treatment (MPAO1 [2]; MPAO1 evolved in D-CONGA): 1; fold-change relative to starting MIC before treatment (MPAO1 [2]; MPAO1 evolved in D-CONGA-Q7): 1.33; efficacy against drug-resistant clinical isolates [3]: efficacious in vitro and in vivo; induction of resistance [4]: has not been observed
CC(C)C[C@@H](NC(=O)[C@@H](CCCNC(=N)N)NC(=O)[C@@H](CCCNC(=N)N)NC(=O)[C@@H](C)NC(=O)[C@@H](Cc1c[nH]c2ccccc12)NC(=O)[C@@H](CCCNC(=N)N)NC(=O)[C@H](N)CCCNC(=N)N)C(=O)N[C@H](C)C(=O)N[C@H](Cc1ccccc1)C(=O)N[C@H](C)C(=O)N[C@H](Cc1ccccc1)C(=O)N[C@H](CCCNC(=N)N)C(=O)N[C@H](CCCNC(=N)N)C(N)=O [D-CONGA] (H-[dR][dR][dW][dA][dR][dR][dL][dA][dF][dA][dF][dR][dR]-NH2; N-terminus and C-terminus assumed),0.33,1.3,0.43,0.67,3,1,2,3.33,failed to induce marked cross-resistance to antibiotics,induced cross-resistance to other peptides,1,1,developed resistance,1.2,1,1.2,1.2,1,2,1,fold-change relative to starting MIC before treatment (MPAO1 [2]; MPAO1 evolved in D-CONGA): 1; fold-change relative to starting MIC before treatment (MPAO1 [2]; MPAO1 evolved in D-CONGA-Q7): 1.4; efficacy against drug-resistant clinical isolates [3]: efficacious in vitro and in vivo; induction of resistance [4]: has not been observed
Colistin,–,1.67,–,–,20,–,–,–,failed to induce marked cross-resistance to antibiotics,induced cross-resistance to other peptides,1,1,Rapid acquisition of resistance,–,2.67,–,–,2,1,1,"MIC, average of triplicates (MPAO1 [5]): 2 µg/mL; MIC, average of triplicates (PAO1): 2 µg/mL; MIC, average of triplicates (MPAO1-ΔmutL [6]): 2 µg/mL; MIC, average of triplicates (MPAO1-ΔmutS [7]): 2 µg/mL; resistance acquisition on repeated exposure to the drug (MPAO1-ΔmutL [8]): rapid resistance acquisition; Average MIC at end point (MPAO1-ΔmutS [1]; [10]): 3 µg/mL; Average MIC at end point (MPAO1-ΔmutS [1]; MPAO1-ΔmutS evolved in COL): 53 µg/mL; Average MIC at end point (MPAO1-ΔmutS [1]; [14]): 2 µg/mL; Average MIC at end point (MPAO1-ΔmutS [1]; [15]): 2 µg/mL; resistance acquisition on repeated exposure to the drug (MPAO1 [2]; MPAO1, monotherapy, more slowly than MPAO1-ΔmutS): eventually displayed an elevated minimum inhibitory concentration (MIC); Average MIC at end point (MPAO1 [2]; MPAO1 evolved in AZ + COL): 5 µg/mL; Average MIC at end point (MPAO1 [2]; MPAO1 evolved in COL): 4 µg/mL; Average MIC at end point (MPAO1 [2]; [17]): 2 µg/mL; Average MIC at end point (MPAO1 [2]; [18]): 2 µg/mL; resistance acquisition under monotherapy [9]: rapidly acquired resistance"
